One test has as its system HMEC-1. Briefly: Cytotoxicity against human HMEC-1 cells assessed as growth inhibition after 72 hrs by MTT assay. It is filed as cell-based. As to conditions: HMEC-1, 72 h.
The test system of a further test is L1210. Kind of test: cells. Particulars: Mus musculus, L1210, 72 h.
For a further test, the system named is HeLa. Briefly: cells. As to conditions: Homo sapiens, 72 h.
The next test relates to CCRF-CEM. Briefly: cells. Particulars: Homo sapiens, 72 h.
The species named for test [1] is Homo sapiens. Briefly: Binding affinity to human TeloC DNA assessed as stabilization of DNA by measuring change in melting temperature at 1 uM by FRET analysis.
For test [2], the species on record is Homo sapiens. Briefly: Binding affinity to HIF1A DNA (unknown origin) assessed as stabilization of DNA by measuring change in melting temperature at 1 uM by FRET analysis.
The species named for test [3] is Homo sapiens. Kind of test: Binding affinity to cMYC DNA (unknown origin) assessed as stabilization of DNA by measuring change in melting temperature at 1 uM by FRET analysis.
For test [4], the species on record is Homo sapiens. Briefly: Binding affinity to ILPR DNA (unknown origin) assessed as stabilization of DNA by measuring change in melting temperature at 1 uM by FRET analysis.
The nature of test [5]: Binding affinity to NASG DNA (unknown origin) assessed as stabilization of DNA by measuring change in melting temperature at 1 uM by FRET analysis.
A further test deals with Quadruplex DNA. Kind of test: Binding affinity to human G-quadruplex TeloG DNA assessed as stabilization of DNA by measuring change in melting temperature at 1 uM by FRET analysis. In kind it is nucleic-acid assay.
For the next test, the system named is DNA. Kind of test: Binding affinity to double strand DNA (unknown origin) assessed as stabilization of DNA by measuring change in melting temperature at 1 uM by FRET analysis. It is filed as nucleic-acid assay. As to conditions: Homo sapiens.
For test [6], the species on record is Homo sapiens. Kind of test: Binding affinity to DAP DNA (unknown origin) assessed as stabilization of DNA by measuring change in melting temperature at 1 uM by FRET analysis.

The values that follow come from ChEMBL document CHEMBL4825679, “Water-Soluble Heliomycin Derivatives to Target i-Motif DNA” (J Nat Prod, 2021).

Activity calls are given as the source filed them. No cut-off for these calls is given here.

Description for CCRF-CEM: Antiproliferative activity against human CEM cells assessed as growth inhibition after 72 hrs by MTT assay
Description for HeLa: Antiproliferative activity against human HeLa cells assessed as growth inhibition after 72 hrs by MTT assay
Description for L1210: Antiproliferative activity against mouse L1210 cells assessed as growth inhibition after 72 hrs by MTT assay

One may read the IC50 as the point on the concentration scale where inhibition reaches its midpoint. As to `Cc1cc(NCCN)c2c3c4c(cc(O)c13)C(C)(C)C(=O)c1c(O)cc(O)c(c1-4)C2=O`, the IC50 was 1200 nM in the test on HMEC-1, 200 nM in the test with L1210, 1600 nM with HeLa and 2100 nM in the test with CCRF-CEM.
As for `COc1cccc2c1C(=O)c1c(O)c3c(c(O)c1C2=O)C[C@@](O)(C(=O)CO)C[C@@H]3O[C@H]1C[C@H](N)[C@H](O)[C@H](C)O1` [DOXORUBICIN], the IC50 in the test with HMEC-1 came out at 100 nM.
By ΔTm is commonly meant the shift of the melting midpoint relative to a reference. Consider `COc1cc2c3c4c(c(NCCN)cc(C)c14)C(=O)c1c(O)cc(O)c(c1-3)C(=O)C2(C)C`, for which the result in the test listed under Homo sapiens [1] and in the test listed under Homo sapiens [6] was inactive. Further, the ΔTm is 10 °C in the test listed under Homo sapiens [2]; 25 °C in the test filed under Homo sapiens [3]; 17 °C in the test listed under Homo sapiens [4]; 4 °C in test [5]; 5 °C in the test with Quadruplex DNA; 6 °C in the test with DNA. Besides, the IC50 with HMEC-1 is 700 nM; with L1210, 800 nM; in the test on HeLa, 800 nM; with CCRF-CEM it was 800 nM.
